Paper PMC11672292, “Discovery of Balasubramide Derivative with Tissue‐Specific Anti‐Inflammatory Activity Against Acute Lung Injury by Targeting VDAC1” (Advanced Science, 2024)

Key:
[1] = system: LPS-stimulated RAW264.7 cells; assay: LPS-induced TNF-α release in RAW264.7 macrophages (ELISA); type: cell-based, mouse; conditions: Mus musculus, RAW264.7 cells
Method: (§1) The anti‐inflammatory effects of all (+)‐balasubramide derivatives were evaluated in Lipopolysaccharide (LPS, L2630, Sigma–Aldrich, USA)‐induced macrophage inflammation model. RAW264.7 cells were pretreated with various compounds or (+)3C‐20 at different concentrations for 3 h, and then stimulated with LPS (100 ng mL^−1) for 2 h for the detection of pro‐inflammatory factors expressions. Similarly, following 3 h co‐incubation with (+)3C‐20, mouse BMDMs were stimulated with LPS (100 ng mL^−1) for 3 h. TNF‐α protein in the culture medium supernatant was measured by a commercial ELISA kit (#1 217 202, DAKEWE, China) following the manufacture's protocols.

mouse BMDMs = assay: LPS-induced TNF-α release in BMDMs (ELISA); type: cell-based; conditions: BMDM, read-out: IC50, inhibition of LPS-induced TNF-α release
Method: as §1

VDAC1 = molecular target: T1, VDAC1 (Mus musculus, UniProt Q60932); assay: Cellular thermal shift assay (CETSA) in RAW264.7 cells; type: binding; conditions: 20 µM, versus DMSO
T1 construct: endogenous in cells; host or cells: RAW264.7
Method: For CETSA experiments, RAW264.7 cells were incubated with DMSO or (+)3C‐20 (20 µM) in DMEM for 3 h at standard culture conditions. After washed twice with PBS, the cells were collected and divided equally into 12 groups using PBS containing protease and phosphatase inhibitor cocktail. All the samples were heated in a module with pre‐set temperature (37–81 °C) for 3 min, and balanced at 25 °C for another 3 min. Samples were freeze‐thawed with liquid nitrogen three times to completely lyse cells. The 60 µL supernatant containing soluble protein was isolated by centrifugation (13 800 × g, 20 min, 4 °C), mixed with 20 µL laemmli buffer (4 ×), and heated for 10 min at 95 °C. Eventually, the samples were separated by 10% SDS‐PAGE gels for immunoblotting analysis. For ITDRF experiments, the procedures and details were similar to CETSA experiments. In brief, the RAW264.7 cells were seeded in 6‐well plates, incubated with different concentrations of (+)3C‐20, and heated at a designed temperature.

[2] = system: intratracheal LPS-induced ALI mice; assay: Intratracheal instillation of LPS-induced ALI model; type: in vivo, mouse
Method: The intratracheal instillation of the LPS‐induced ALI model in mice has been previously validated.^[ [60], [61] ^] […] The injection volume of all groups was 10 mL kg^−1. […] The mice were fixed in dorsal recumbency, then the skins and muscles of the mice were separated to expose the tracheal after disinfection. Subsequently, mice were intratracheally injected with 50 µL LPS (20 mg kg^−1) or PBS into the lung through tracheal cartilage rings by using insulin syringes and observed after stitching up the muscles and skins. At 6 h after LPS injection, mice were euthanized to collect samples required for subsequent experiments.
After mice were sacrificed, the left lung tissue fixed with 4% paraformaldehyde was embedded in paraffin, cut into 5 µm thick sections, and stained with hematoxylin and eosin.
Mice were stimulated and treated as indicated in experiments and the lung was lavaged three times through the trachea with 500 µL pre‐chilled PBS buffer. The fluids were merged and centrifuged at 600 × g for 10 min. The supernatant was collected to measure total protein using the BCA kit and for pro‐inflammatory cytokines detection by ELISA described above, and cell pellets after centrifugation were resuspended in FACS buffer (PBS with 1% FBS). […] Finally, the samples were washed twice with FACS buffer and analyzed with Cytoflex S (Beckman coulter, USA)

BMDMs [3] = assay: NLRP3 inflammasome-induced pyroptosis, LDH release; type: cell-based, mouse; conditions: 10 µM, LPS plus ATP, Nigericin or MSU, compared with parent compound (+)3J
Method: According to previous reports,^[ [65] ^] NLRP3 inflammasome was activated in BMDMs primed with LPS (100 ng mL^−1) for 3 h, and the inflammasome was further assembled using ATP (5 mM, A6419, Sigma–Aldrich, USA) for 45 min, or Nigericin ([…], T3092, TargetMol, USA) for 1 h, or Monosodium Urate Crystal (MSU, 600 µg mL^−1, T41242, TargetMol, USA) for 6 h. To investigate the effect of compounds in NLRP3 inflammasome activation, the cells pretreated with compounds were stimulated with LPS for 3 h and followed by stimulation with ATP for another 45 min, or nigericin for another 1 h, or MSU for another 6 h to activate NLRP3 inflammasome.
Cell culture supernatants were collected and centrifuged to remove cell debris at 800 rpm for 5 min. LDH measurement was performed with an LDH cytotoxicity assay kit (C0017, Beyotime, China) according to the manufacture's instructions. Data were plotted normalizing the OD490 value of the model group as 100%.

[4] = molecular target: T2, VDAC1 oligomerization in LPS-primed BMDMs (Mus musculus, UniProt Q60932); assay: VDAC1 cross-linking (oligomerization) assay; type: cell-based; conditions: DSS cross-linking, immunoblotting
T2 construct: endogenous in cells; host or cells: primary bone marrow-derived macrophages (BMDMs) from C57BL/6J mice
Method: The cells (BMDM, iBMDM, RAW264.7, and HEK293T) treated with (+)3C‐20 were washed twice by PBS and lysed in RIPA. The lysate was incubated for 30 min at 30 °C with the cross‐linking reagent DSS (1 mM), mixed with 4 × laemmli buffer with DTT, subjected to SDS‐PAGE and immunoblotting analyzed with anti‐VDAC1 antibody.

BMDMs [5] = assay: Cytosolic mtDNA measurement (qPCR) in BMDMs; type: cell-based, mouse; conditions: 10 µM
Method: BMDMs were stimulated and treated with 10 µM (+)3C‐20 as indicated. Cytosolic mtDNA collection was carried out as previously described.^[ [25] ^] Briefly, BMDMs were washed twice with PBS, harvested, and resuspended in 200 µL mitochondria isolation reagent (Beyotime, C3601) with protease and phosphatase inhibitor cocktail. Cell resuspension was triturated with a glass homogenizer and centrifuged at 11 000 × g for 10 min at 4 °C to pelleted down mitochondria and cell membrane, and the remaining supernatant contained the cytosolic mtDNA that were measured. After DNA purification from the supernatant with FastPure Cell DNA Isolation Mini Kit (DC102‐01, Vazyme, China) according to the manufacturer's instruction, qPCR was performed using specific mtDNA primers (D‐loop, D‐loop1, D‐loop2, D‐loop3).

mice = assay: Acute toxicity (LD50, sequential method), single intravenous injection; conditions: i.v.
From the text: To test the safety of (+)3C‐20 in mice, as previously reported,^[ [31] ^] we estimated the acute toxicity of (+)3C‐20 in mice using a sequential method.

T2 sequence (Q60932 14-296): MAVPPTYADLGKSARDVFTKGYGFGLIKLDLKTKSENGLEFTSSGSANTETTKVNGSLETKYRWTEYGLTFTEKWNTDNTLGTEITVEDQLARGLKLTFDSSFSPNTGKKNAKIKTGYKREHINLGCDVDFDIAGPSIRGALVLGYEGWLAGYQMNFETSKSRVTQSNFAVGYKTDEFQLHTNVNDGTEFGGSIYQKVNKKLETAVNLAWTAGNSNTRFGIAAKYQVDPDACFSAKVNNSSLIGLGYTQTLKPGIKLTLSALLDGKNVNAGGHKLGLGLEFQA
T1 sequence (Q60932 14-296): as above

O=C(CCc1ccc(C(F)(F)F)cc1)O[C@@H]1C(=O)NCCc2c([nH]c3ccccc23)[C@H]1c1ccc(C(F)(F)F)cc1 [(+)3C-20]
inhibition at 10 µM ([1]; 10 μM + LPS (100 ng/mL), n = 3, read-out: Inhibition rate (%) of TNF-α release): 82 ± 3.93%
IC50 ([1]; read-out: IC50, inhibition of LPS-induced TNF-α release): 11.8 µM
IC50 (mouse BMDMs): 3.64 µM
thermal stabilization of VDAC1 (CETSA) (VDAC1): significant thermal stabilization
therapeutic effect in H&E lung histology ([2]; 50 mg kg^−1, compared to dexamethasone 5 mg kg^−1): better therapeutic effect
survival rate of mice ([2]; after intratracheal instillation of LPS, 72 h observation, versus vehicle group): increased the survival rate
lung index (lung organ coefficient) ([2]; mice, 50 mg kg^−1 i.p., LPS 20 mg kg^−1 i.t.): reverse the upregulation of lung index
lung wet/dry ratio ([2]; pre-treatment at 50 mg kg^−1, LPS 20 mg kg^−1 i.t.): significantly reduced
NLRP3 inflammasome activators-stimulated cell death (membrane blebbing, LDH release) (BMDMs [3]): significantly decreased
VDAC1 oligomerization [4]: inhibit VDAC1 oligomerization in a dose‐dependent manner
increase in cytosolic mtDNA caused by LPS (BMDMs [5]): significantly inhibited
Mortality (mice; dosage 141.42 mg/kg): 0
Mortality (mice; dosage 168.18 mg/kg): 20
Mortality (mice; dosage 200.00 mg/kg): 83.33
Mortality (mice; dosage 237.84 mg/kg): 100
